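Where inhibition never reached the appropriate level, the endpoint shown equals the highest concentration tested. Otherwise, values were interpolated linearly from a five-concentration, 48-hour dose response in 96-well plates. Here, GI50 denotes the concentration required for 50% inhibition of growth. At the TGI there is no net growth.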
Assays:
Test in all cases: DTP human tumour cell line panel, 48 h
[1] = test system: KM12 colon
[2] = test system: EKVX NSCLC
[3] = test system: UACC-257 melanoma
[4] = test system: SNB-19 CNS
[5] = test system: M14 melanoma
[6] = test system: NCI-H226 lung
[7] = test system: BT-549 breast
[8] = test system: PC-3 prostate
[9] = test system: HCC-2998 colon
[10] = test system: MDA-MB-231 breast
[11] = test system: SNB-75 CNS
[12] = test system: OVCAR-4 ovarian
[13] = test system: UACC-62 melanoma
[14] = test system: CAKI-1 renal
[15] = test system: SF-268 CNS
[16] = test system: 786-0 renal
[17] = test system: HCT-116 colon
[18] = test system: NCI-H460 lung
[19] = test system: SK-OV-3 ovarian
[20] = test system: SK-MEL-5 melanoma
[21] = test system: NCI-H23 lung
[22] = test system: SK-MEL-28 melanoma
[23] = test system: SK-MEL-2 melanoma
[24] = test system: MCF7 breast
[25] = test system: RPMI-8226 leukemia
[26] = test system: NCI/ADR-RES ovarian
[27] = test system: RXF 393 renal
[28] = test system: HOP-92 NSCLC
[29] = test system: HS 578T breast
[30] = test system: MALME-3M melanoma
[31] = test system: IGROV1 ovarian
[32] = test system: COLO 205 colon
[33] = test system: HCT-15 colon
[34] = test system: TK-10 renal
[35] = test system: T-47D breast
[36] = test system: MDA-MB-435
[37] = test system: K-562 leukemia
[38] = test system: A549 NSCLC
[39] = test system: ACHN renal
[40] = test system: UO-31 renal
[41] = test system: SF-295 CNS
[42] = test system: LOX IMVI melanoma
[43] = test system: A498 renal
[44] = test system: SF-539 CNS
[45] = test system: HT29 colon
[46] = test system: OVCAR-8 ovarian
[47] = test system: OVCAR-5 ovarian
[48] = test system: OVCAR-3 ovarian
[49] = test system: SW-620 colon
[50] = test system: NCI-H522 lung
[51] = test system: SN12C renal
[52] = test system: HOP-62 NSCLC
[53] = test system: HL-60(TB) leukemia
[54] = test system: U251 CNS
[55] = test system: CCRF-CEM leukemia
[56] = test system: MOLT-4 leukemia
[57] = test system: DU-145 prostate

C[N+](C)(CCCCCC[N+](C)(C)CCCN1C(=O)c2cc3ccccc3cc2C1=O)CCCN1C(=O)c2ccccc2C1=O
GI50 [1]: > 37.5 µM
TGI [1]: > 37.5 µM
GI50 [2]: > 37.5 µM
TGI [2]: > 37.5 µM
GI50 [3]: > 37.5 µM
TGI [3]: > 37.5 µM
GI50 [4]: > 37.5 µM
TGI [4]: > 37.5 µM
GI50 [5]: > 37.5 µM
TGI [5]: > 37.5 µM
GI50 [6]: > 37.5 µM
TGI [6]: > 37.5 µM
GI50 [7]: > 37.5 µM
TGI [7]: > 37.5 µM
GI50 [8]: > 37.5 µM
TGI [8]: > 37.5 µM
GI50 [9]: > 37.5 µM
TGI [9]: > 37.5 µM
GI50 [10]: > 37.5 µM
TGI [10]: > 37.5 µM
GI50 [11]: > 37.5 µM
TGI [11]: > 37.5 µM
GI50 [12]: > 37.5 µM
TGI [12]: > 37.5 µM
GI50 [13]: > 37.5 µM
TGI [13]: > 37.5 µM
GI50 [14]: > 37.5 µM
TGI [14]: > 37.5 µM
GI50 [15]: > 37.5 µM
TGI [15]: > 37.5 µM
GI50 [16]: > 37.5 µM
TGI [16]: > 37.5 µM
GI50 [17]: > 37.5 µM
TGI [17]: > 37.5 µM
GI50 [18]: > 37.5 µM
TGI [18]: > 37.5 µM
GI50 [19]: > 37.5 µM
TGI [19]: > 37.5 µM
GI50 [20]: > 37.5 µM
TGI [20]: > 37.5 µM
GI50 [21]: > 37.5 µM
TGI [21]: > 37.5 µM
GI50 [22]: > 37.5 µM
TGI [22]: > 37.5 µM
GI50 [23]: > 37.5 µM
TGI [23]: > 37.5 µM
GI50 [24]: > 37.5 µM
TGI [24]: > 37.5 µM
GI50 [25]: > 37.5 µM
TGI [25]: > 37.5 µM
GI50 [26]: > 37.5 µM
TGI [26]: > 37.5 µM
GI50 [27]: > 37.5 µM
TGI [27]: > 37.5 µM
GI50 [28]: > 37.5 µM
TGI [28]: > 37.5 µM
GI50 [29]: > 37.5 µM
TGI [29]: > 37.5 µM
GI50 [30]: > 37.5 µM
TGI [30]: > 37.5 µM
GI50 [31]: > 37.5 µM
TGI [31]: > 37.5 µM
GI50 [32]: > 37.5 µM
TGI [32]: > 37.5 µM
GI50 [33]: > 37.5 µM
TGI [33]: > 37.5 µM
GI50 [34]: > 37.5 µM
TGI [34]: > 37.5 µM
GI50 [35]: > 37.5 µM
TGI [35]: > 37.5 µM
GI50 [36]: > 37.5 µM
TGI [36]: > 37.5 µM
GI50 [37]: > 37.5 µM
TGI [37]: > 37.5 µM
GI50 [38]: > 37.5 µM
TGI [38]: > 37.5 µM
GI50 [39]: > 37.5 µM
TGI [39]: > 37.5 µM
GI50 [40]: > 37.5 µM
TGI [40]: > 37.5 µM
GI50 [41]: > 37.5 µM
TGI [41]: > 37.5 µM
GI50 [42]: > 37.5 µM
TGI [42]: > 37.5 µM
GI50 [43]: > 37.5 µM
TGI [43]: > 37.5 µM
GI50 [44]: > 37.5 µM
TGI [44]: > 37.5 µM
GI50 [45]: > 37.5 µM
TGI [45]: > 37.5 µM
GI50 [46]: > 37.5 µM
TGI [46]: > 37.5 µM
GI50 [47]: > 37.5 µM
TGI [47]: > 37.5 µM
GI50 [48]: > 37.5 µM
TGI [48]: > 37.5 µM
GI50 [49]: > 37.5 µM
TGI [49]: > 37.5 µM
GI50 [50]: > 37.5 µM
TGI [50]: > 37.5 µM
GI50 [51]: > 37.5 µM
TGI [51]: > 37.5 µM
GI50 [52]: > 37.5 µM
TGI [52]: > 37.5 µM
GI50 [53]: > 37.5 µM
TGI [53]: > 37.5 µM
GI50 [54]: > 37.5 µM
TGI [54]: > 37.5 µM
GI50 [55]: > 37.5 µM
TGI [55]: > 37.5 µM
GI50 [56]: > 37.5 µM
TGI [56]: > 37.5 µM
GI50 [57]: > 37.5 µM
TGI [57]: > 37.5 µM

Reference: PubChem BioAssay (NCI)
